The results in this text go back to PubChem BioAssay (NCI).

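Exposure lasted 48 hours, with cells grown in 96-well plates and compounds tested at five concentrations. The concentration for 50% growth inhibition is given as GI50. Definition used: TGI = concentration required for complete inhibition of growth.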 Some results are limits rather than exact numbers.

Assay in all cases: growth of human tumour cells (NCI), 48 h
The subject of test [1] is NCI-H226 lung.
Test [2] relates to SK-MEL-2 melanoma.
Test [3] deals with IGROV1 ovarian.
Test [4] relates to OVCAR-8 ovarian.
For test [5], the system named is OVCAR-4 ovarian.
Test [6] concerns SR leukemia.
For test [7], the system named is HT29 colon.
Test [8] deals with UO-31 renal.
The subject of test [9] is U251 CNS.
Test [10] concerns MCF7 breast.

Consider `Nc1c(C(=O)Nc2ccccc2O)[n+]([O-])c2ccccc2[n+]1[O-]`, for which the TGI in [1], in [2], in [3], in [4], in [5] and in test [6] was more than 100 µM throughout. Also, the TGI in test [7], in test [8] and in test [9] was more than 100 µM each time.
In the case of `CCOC(=O)C1=CSC2=NC3=C(CCC/C3=C\c3cc(OC)c(OC)c(OC)c3)C(c3cc(OC)c(OC)c(OC)c3)N12` (centres undefined), the GI50 in [1] was 2.4 µM; in test [2], more than 100 µM; in test [4], 0.376 µM; in test [5] it was 1.32 µM; in test [10], 2.66 µM; in test [7], 1.34 µM. Further, the TGI in test [1], in test [2], in [4], in [5], in test [10] and in test [7] was more than 100 µM each time.
With `O=C1c2ccccc2-c2c1c1ccc([N+](=O)[O-])cc1c(=O)n2CCCCl`, the GI50 in test [2] is more than 100 µM; in [3] it was more than 100 µM; in [4], 72.1 µM; in test [10], 1.12 µM; in test [7] it was 65 µM; in test [8], 6.4 µM. The GI50 in [9] is 3.08 µM. Moreover, the TGI in test [2], in [3], in [4], in test [10], in test [7] and in test [8] was more than 100 µM throughout. The TGI in test [9] was more than 100 µM.
Consider `CCOc1ccc(/C=C2/C(=O)N=C(N)N=C2N)cc1OCC`, for which the TGI in test [1], in test [2], in test [3], in test [4], in test [5] and in test [6] was more than 100 µM in each case. The TGI in [7], in test [8] and in test [9] was more than 100 µM in each case.
For the molecule `C=CC(C)(O)CCC1C(=C)C(O)CC2C(C)(C)CCCC12C` (centres undefined), the TGI amounted to 29.2 µM in [1]; 31.1 µM in test [2]; 52.2 µM in [3]; 71.4 µM in [4]; 47.5 µM in [5]; 60 µM in [10]. Besides, the results for the TGI in [7], in [8] and in test [9] were 33 µM, 28.5 µM and 28.8 µM, respectively.
As to `CN(C)CCNC(=O)c1cccc2cc3ccc4ccccc4c3nc12`, the TGI worked out at 0.488 µM in [1]; 0.406 µM in test [2]; 1.05 µM in [3]; 0.316 µM in test [4]; 0.752 µM in test [5]; 0.147 µM in [6]. Besides, the TGI in [7] amounted to 0.701 µM; in test [8], 0.218 µM; in test [9], 0.663 µM.
For `CC1=C(C(=O)CC(=O)C(=O)Nc2ccccc2C)Sc2ccccc2N1`, the TGI in test [1], in test [2], in test [3], in [4], in test [5] and in test [6] was more than 100 µM in each case. Besides, the TGI in test [7], in test [8] and in test [9] was more than 100 µM each time.
In the case of `Cn1cc(NC(=O)c2cc(NC(=O)CCCCCCCC(=O)Nc3cc(C(=O)Nc4cc(C(=O)NCCC(=N)N)n(C)c4)n(C)c3)cn2C)cc1C(=O)NCCC(=N)N`, the TGI in test [2] was 27.9 µM; in [3], 25.3 µM; in test [4], 42.9 µM; in [5], more than 100 µM; in test [6] it was 92.7 µM; in test [7], more than 100 µM. Moreover, the results for the TGI in test [8] and in test [9] were more than 100 µM and 44.6 µM, respectively.
On to `COc1cc2c3c(n(CCCN4CCSCC4)c(=O)c2cc1OC)-c1cc2c(cc1C3=O)OCO2`, for which the GI50 was 59.9 µM in test [1]; 16.8 µM in test [2]; 28.8 µM in test [3]; more than 100 µM in [4]; more than 100 µM in [5]; 61.4 µM in [10]. The GI50 in [7], in [8] and in [9] was more than 100 µM each time. For the same molecule, the TGI is more than 100 µM in [1]; 36.4 µM in test [2]; 86.2 µM in [3]; more than 100 µM in test [4]; more than 100 µM in test [5]; more than 100 µM in [10]. Also, the TGI in test [7], in test [8] and in [9] was more than 100 µM in each case.
`O=c1c2cccc3cccc(c4n1CCCN=4)c32`: the TGI in test [1], in test [2], in test [3], in test [4], in [5] and in test [6] was more than 100 µM throughout. The TGI in test [7], in test [8] and in [9] was more than 100 µM throughout.
In the case of `O=[N+]([O-])c1ccc(/C=C\c2ccc3c(c2)OCO3)c([N+](=O)[O-])c1`, the TGI in test [2] worked out at 35.3 µM; in [3] it was 24.7 µM; in test [4], 45.5 µM; in test [6] it was 23.6 µM; in test [10], 8.58 µM; in [7] it was 40.3 µM. Also, the values for the TGI in test [8] and in test [9] were 54.5 µM and 28.9 µM, respectively.
With `COc1ncc2cc1NS(=O)(=O)c1cccc(c1)C(=O)NCC1=CC=C(S1)c1ncnc3c1SC2=C3C`, the GI50 in test [1] is 0.47 µM; in test [2], 0.225 µM; in test [3], 0.0715 µM; in test [4], 0.58 µM; in [5] it was 1.22 µM; in [10], 0.104 µM. Also, the GI50 in test [7] was 0.201 µM; in test [8], 0.0733 µM; in [9], 0.17 µM. The TGI in [1] amounted to 2.6 µM; in [2] it was 1.15 µM; in [3], 1.6 µM; in [4], 15.5 µM; in test [5], 10.5 µM; in [10] it was 1.62 µM. Also, the results for the TGI in test [7], in test [8] and in test [9] were 1.74 µM, 1.7 µM and 2.03 µM, respectively.
For `CC(C)(C)c1cc(C(OCCl)(C(F)(F)F)C(F)(F)F)c2c(c1)C(C(F)(F)F)(C(F)(F)F)OC21c2ccccc2C(=O)c2ccccc21`, the TGI in test [1], in test [2], in [4], in [5], in test [6] and in test [7] was more than 100 µM in each case. For the same molecule, the TGI in test [8] and in test [9] was more than 100 µM each time.
Turning to `Cc1ccc(O)cc1Nc1ccnc2cc(-c3ccccn3)ccc12`, the GI50 in test [1] was 3.88 µM; in test [2], 3.86 µM; in test [3], 0.502 µM; in test [4] it was 3.61 µM; in test [5], 1.82 µM; in [10] it was 2.71 µM. Besides, the GI50 in test [7] is 3.9 µM; in [8], 0.246 µM; in test [9], 3.29 µM. Also, the TGI was determined as 11.9 µM in test [1]; 8.03 µM in test [2]; 2.13 µM in test [3]; 9.28 µM in test [4]; 11.7 µM in [5]; 6.07 µM in test [10]. Moreover, the TGI in [7] turned out to be 7.81 µM; in test [8] it was 3.77 µM; in [9], 6.65 µM.
On to `Cc1c(C)c2ccc(OC(C)C(=O)O)cc2oc1=O` (centres undefined), for which the TGI in [1], in [3], in test [4], in [5], in test [6] and in test [7] was more than 100 µM each time. Besides, the TGI in test [8] and in [9] was more than 100 µM throughout.
Take `O=S(=O)(Cc1ccccc1)SCc1ccccc1`: the TGI is 54.4 µM in test [1]; more than 70.9 µM in [2]; more than 84.7 µM in test [3]; 28.8 µM in test [4]; 54 µM in [5]; more than 66.4 µM in test [6]. The results for the TGI in test [7], in test [8] and in [9] were 54.1 µM, more than 100 µM and 66.2 µM, respectively.
`NCC(Cc1ccccc1)P(=O)(O)O` (centres undefined): the TGI in test [1], in [2], in [3], in test [4], in test [5] and in test [10] was more than 100 µM throughout. The TGI in test [7], in test [8] and in test [9] was more than 100 µM each time.
For `O=C(CN(/C=C/C(=O)C(F)(F)F)c1ccccc1)c1ccc(F)cc1`, the GI50 in test [1] is 19.6 µM; in test [2], 26.3 µM; in test [3], 21.9 µM; in test [4] it was 47.4 µM; in test [5], 42.5 µM; in test [10], 23.2 µM. The GI50 is 38.9 µM in test [7], 33.8 µM in test [8] and 22.9 µM in test [9]. The TGI in test [1] is 47.8 µM; in test [2], 70.1 µM; in [3], 79.2 µM; in test [4], more than 100 µM; in test [5], more than 100 µM; in test [10], 59.3 µM. The TGI was more than 100 µM in test [7], more than 100 µM in [8] and 69.8 µM in [9].
For the molecule `CC(C)c1cc(C(C)C)c(Cl)c(Cl)c1O` (tested in a mixture with another compound), the TGI worked out at 46.5 µM in [2]; 81.1 µM in [3]; 76.1 µM in [4]; 63.4 µM in [6]; 54.6 µM in test [10]; 58.8 µM in [7]. In addition, the TGI in [8] is 57.7 µM; in [9], more than 100 µM.
In the case of `O=C1c2ccoc2C(=O)c2oc(=O)ccc21`, the TGI in test [1] is more than 56.7 µM; in test [2] it was 22 µM; in test [3] it was 40 µM; in [4], 14.9 µM; in [5] it was 13.5 µM; in test [6], 3.83 µM. For the same molecule, the values for the TGI in [7], in test [8] and in [9] were more than 78.8 µM, 14.9 µM and 20.8 µM, respectively.
For the molecule `CN1CCOCCOCCOc2ccccc2NC(=O)c2nc(cnc2N)-c2ccc(cc2)S1(=O)=O`, the GI50 was 59.9 µM in test [1]; 0.0719 µM in test [3]; 7.1 µM in [4]; 0.0397 µM in test [10]; 5.16 µM in test [9]. Besides, the TGI in test [1], in test [3], in test [4], in test [10] and in test [9] was more than 100 µM each time.
For `Nc1nc(-c2ccccc2)cc(-c2cc(Cl)ccc2O)n1`, the TGI in [1], in test [3], in test [4], in [5], in test [6] and in test [7] was more than 100 µM throughout. Also, the TGI in test [8] and in [9] was more than 100 µM throughout.
With `O=C(Nc1ccc(Br)cc1)Nc1cccc(Br)c1`, the GI50 is 47.1 µM in [1]; 5.7 µM in test [2]; 5.82 µM in [3]; 11.6 µM in test [6]; 3.2 µM in [10]. In addition, the TGI in test [1], in [2], in test [3], in [6] and in test [10] was more than 100 µM in each case.
In the case of `Cc1cn2c(/C=C3/C(=O)Nc4ccc(C(=O)O)cc43)c(C)nc2s1`, the GI50 in test [1], in test [2], in [3], in [4], in test [5] and in test [10] was more than 100 µM each time. For the same molecule, the GI50 in test [7], in [8] and in test [9] was more than 100 µM throughout. In addition, the TGI in test [1], in test [2], in [3], in test [4], in test [5] and in [10] was more than 100 µM in each case. Besides, the TGI in test [7], in [8] and in [9] was more than 100 µM throughout.
For the molecule `O=C(O)C1=C(C(=O)O)Oc2ccccc2O1`, the TGI in test [1], in test [2], in [3], in test [4], in [5] and in test [6] was more than 100 µM in each case. For the same molecule, the TGI in [7], in test [8] and in test [9] was more than 100 µM throughout.
